Measurements reported in the supplement of paper PMC10307832.

Legend:
Test in all cases: relative viability (nuclei count vs DMSO), 5 days (fraction); higher = more cells survive
[1] = compound: C[C@]12O[C@H](C[C@]1(O)CO)n1c3ccccc3c3c4c(c5c6ccccc6n2c5c31)CNC4=O [Lestaurtinib] + O=C(c1cc(Cc2n[nH]c(=O)c3ccccc23)ccc1F)N1CCN(C(=O)C2CC2)CC1 [Olaparib] (partner 8 µM)
Outline: (§1)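 Relative viability equals treated-well nuclei counts divided by vehicle-well nuclei counts. Counts came from 4× images of lung cancer cell lines grown in 1536-well plates for 5 days after pin-tool dosing on the day after seeding. Dosing used one drug alone or a fixed anchor-drug dose plus five library-drug doses (not always all listed) in √10 steps, and values are medians of duplicate plates.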

[2] = compound: C[C@]12O[C@H](C[C@]1(O)CO)n1c3ccccc3c3c4c(c5c6ccccc6n2c5c31)CNC4=O [Lestaurtinib] + NC(=O)Nc1cc(-c2cccc(F)c2)sc1C(=O)N[C@H]1CCCNC1 [AZD7762] (partner 0.2 µM)
Outline: as §1

[3] = compound: C1=CC(=CC=C1C2=CC(=C(S2)NC(=O)N)C(=O)N)F [TPCA-1] + CC(=O)Nc1cccc(-n2c(=O)n(C3CC3)c(=O)c3c(Nc4ccc(I)cc4F)n(C)c(=O)c(C)c32)c1 [Trametinib] (partner 0.02 µM)
Outline: as §1

[4] = compound: C1/C(=C\C2=CC=CS2)/C(=O)/C(=C/C3=CC=CS3)/C1 + CC(=O)Nc1cccc(-n2c(=O)n(C3CC3)c(=O)c3c(Nc4ccc(I)cc4F)n(C)c(=O)c(C)c32)c1 [Trametinib] (partner 0.02 µM)
Outline: as §1

Cell Line	relative viability ([1]; first compound 0.005 µM)	relative viability ([1]; first compound 0.01581 µM)	relative viability ([1]; first compound 0.05 µM)	relative viability ([1]; first compound 0.1581 µM)	relative viability ([1]; first compound 0.5 µM)	relative viability ([2]; first compound 0.005 µM)	relative viability ([2]; first compound 0.01581 µM)	relative viability ([2]; first compound 0.05 µM)	relative viability ([2]; first compound 0.1581 µM)	relative viability ([2]; first compound 0.5 µM)	relative viability ([3]; first compound 0.04 µM)	relative viability ([3]; first compound 0.1265 µM)	relative viability ([3]; first compound 0.4 µM)	relative viability ([3]; first compound 1.265 µM)	relative viability ([3]; first compound 4 µM)	relative viability ([4]; first compound 0.2 µM)	relative viability ([4]; first compound 0.6325 µM)	relative viability ([4]; first compound 2 µM)	relative viability ([4]; first compound 6.325 µM)	relative viability ([4]; first compound 20 µM)
LU99A	0.211	0.25	0.161	0.196	0.142	0.362	0.348	0.34	0.277	0.158	0.66	0.487	0.553	0.466	0.284	0.626	0.558	0.555	0.495	0.497
LXF-289	1.09	1.08	0.753	0.852	0.172	1.12	1.14	0.801	0.864	0.17	0.7	0.629	0.635	0.653	0.565	0.707	0.693	0.675	0.626	0.613
NCI-H23	0.327	0.295	0.291	0.301	0.203	0.213	0.257	0.227	0.246	0.203	0.535	0.377	0.362	0.382	0.358	0.411	0.406	0.4	0.369	0.365
NCI-H322M	0.823	0.622		0.765	0.521	0.511	0.538		0.517	0.479	0.499	0.455	0.51	0.449	0.494	0.519	0.494	0.474	0.433	0.517
NCI-H358	0.548	0.396	0.408	0.322	0.141	0.485	0.413	0.432	0.298	0.253	0.167	0.165	0.157	0.158	0.0935	0.124	0.134	0.148	0.133	0.132
NCI-H441	0.557	0.513	0.495	0.48	0.379	1.17	1.39	1.04	1.01	0.743	0.402	0.405	0.422	0.459	0.266	0.607	0.429	0.552	0.446	0.418
NCI-H460	0.511	0.532	0.449	0.516	0.429	0.651	0.765	0.757	1.31	0.645	0.172	0.161		0.145	0.154	0.158	0.305	0.163	0.0691	0.139
NCI-H522	0.741	0.617	0.665	0.617	0.429	0.944	0.778	0.842	0.744	0.479	0.872	0.737	0.901	0.766	0.6	0.726	0.728	0.715	0.739	0.767
